In this experiment the test system is PYK-2. The experiment in a line: Tyrosine phosphorylation of PYK-2 in NIH3T3 cells overexpressing PYK-2. It is filed as cell-based. To be noted: NIH3T3 cells overexpressing PYK-2 / PYK-2-HA; TPA 6 μM, 15 min, 37° C. From the text: The PYK-2 cDNA cloned in pLSV was cotransfected with pSV2neo into PC12 cells and NIH3T3 in order to establish stable cell lines. G418 resistant colonies were screened by immunoprecipitating and immunoblotting.
NIH3T3 cell lines were established that overexpress the PYK-2 and the PYK-2-HA protein. […] The level of phosphorylation is not so high.

`CCCCCCCCCCCCCC(=O)O[C@@H]1[C@@H](C)[C@@]2(O)[C@@H](C=C(CO)C[C@]3(O)C(=O)C(C)=C[C@@H]23)[C@@H]2C(C)(C)[C@]12OC(C)=O` [PMA, phorbol 12-myristate 13-acetate]: the “tyrosine phosphorylation of PYK-2” value is reported as “stronger effect”.

These data come from patent publication US20030119067A1, “PYK2 related products and methods” (Sugen, Inc., priority 1996, published 2003).
